{
  "source": "patent US20260337212A1",
  "about": "“IP4-4,6 SUBSTITUTED DERIVATIVE COMPOUNDS FOR USE IN THE TREATMENT, INHIBITION OF PROGRESSION, AND PREVENTION OF ECTOPIC CALCIFICATION” (SANIFIT THERAPEUTICS, S.A., priority 2022, published 2026)",
  "key": {"[1]": {"assay": "In vitro inhibition of calcium phosphate crystallization in human plasma (spectrophotometric)", "type": "biochemical", "conditions": "0-100 μM, 1.5 mM phosphate, 12.5 mM calcium, pH 7.4, 30 min, rt, read-out: Relative Potency (EC50, inhibition of calcium phosphate crystallization)", "summary_of_the_method": "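Human plasma spiked with compound (0-100 μM), centrifuged, then brought to final 1.5 mM phosphate and 12.5 mM calcium, pH 7.4. Absorbance at 550 nm read every 3 min for 30 min at rt; inhibition from slopes (6-24 min, absorbance vs log time) relative to blank plasma.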"}, "[2]": {"assay": "Rat vitamin D3 model: blood perfusion of posterior limbs by laser doppler perfusion imaging", "type": "in vivo, Sprague Dawley rat", "conditions": "FIG. 13", "experimental": "Statistical analysis: One-way ANOVA with Fisher's LSD test for post-hoc comparisons. The result of the ANOVA was p<0.0001. (#) indicates significant differences vs sham, (*) indicates significant differences vs vehicle, (§) indicates significant differences vs Compound 27 5 mg/kg (only applies to other Compound 27 doses), p<0.05. N=10-12 animals/group.\nThe model evaluated the effects of Compound 27 on tissue calcification, blood perfusion, and walking ability in rats for a duration of 13 days. Tissue calcification was induced in groups 2-5 from D1 to D3. Animals induced with calcification were administered placebo or active agent formulations from D1 onwards to assess their effects in preventing calcification. The impact of treatment on tissue calcification, blood perfusion, and walking ability was evaluated. Observations were taken at several points during the treatment from D0 to D13. All animals were weighed every day before treatment. […]\nBlood perfusion (BP) was evaluated by laser doppler perfusion imaging applied to the posterior limbs of the animals using a PeriCam PSI Normal Resolution analyzer (Perimed A B, Järfälla, S E). […] The perfusion ratio (i.e., mean of the two legs) was calculated by comparing the baseline and either D4 or D13 readings for each group. In addition, the perfusion ratio was calculated by comparing group 1 and groups 2-5."}, "[3]": {"assay": "Rat vitamin D3 model: tissue calcium content (ICP-OES)", "type": "in vivo, Sprague Dawley rat", "conditions": "5, 15, 45 mg/kg s.c. daily D1-D13", "experimental": "FIG. 12 represents the mean calcium content (±SD) in Sham rats (no VitD3 treatment) and rats treated with vehicle or Compound 27 (5, 15, and 45 mg/kg) in (A) aorta, (B) heart, (C) femoral artery, (D) carotid arteries, and (E) kidney. For femoral and carotid arteries, the mean of the calcium content in left and right vessels was used. Statistical analysis: One-way ANOVA with Fisher's LSD test for post-hoc comparisons. (#) indicates significant differences vs. sham, (*) indicates significant differences vs vehicle, (§) indicates significant differences vs Compound 27 5 mg/kg (only applies to other Compound 27 doses), (¥) indicates significant differences vs Compound 27 15 mg/kg (only applies to Compound 27 45 mg/kg), p<0.05. N=7-12 animals/group.\nThe model evaluated the effects of Compound 27 on tissue calcification, blood perfusion, and walking ability in rats for a duration of 13 days. Tissue calcification was induced in groups 2-5 from D1 to D3. Animals induced with calcification were administered placebo or active agent formulations from D1 onwards to assess their effects in preventing calcification. The impact of treatment on tissue calcification, blood perfusion, and walking ability was evaluated. Observations were taken at several points during the treatment from D0 to D13. All animals were weighed every day before treatment.\nFifty-eight male Sprague Dawley (SD) rats (Envigo Corp., Huntingdon, GB) weighing approximately 275-300 g were used. The animals were fed with a standard LASQCdiet® Rod14-H4 diet (LASvendi, Soest, DE). The animals were divided in 5 groups, 10 to 12 animals per group, as follows: • Group 1—Control (sham), 10 animals • Group 2—Physiological saline solution (placebo) daily, 12 animals • Group 3—Compound 27, 5 mg/kg daily, 12 animals • Group 4—Compound 27, 15 mg/kg daily, 12 animals • Group 5—Compound 27, 45 mg/kg daily, 12 animals\nCalcification was induced in the animals of groups 2-5 by subcutaneous administration of 120,000 IU/kg vitamin D3 (cholecalciferol, Duphafral D3 1000; Zoetis Inc., Parsippany, NJ, US) in physiological saline 0.9% (w/v) NaCl solution (2 mL/kg) daily from D1 to D3. Animals in group 1 were administered 2 mL/kg of physiological saline solution daily from D1 to D3 via subcutaneous route with no vitamin D3. Animals in group 2 were administered 2 mL/kg of physiological saline solution daily from D1 to D13 via subcutaneous route. Animals in groups 3, 4, and 5 were administered 5 mg/kg, 15 mg/kg, and 45 mg/kg, respectively, of Compound 27 (754.45 g/mol free acid) daily in physiological saline solution (2 mL/kg) from D1 to D13 via subcutaneous route.\nAll the living animals of groups 1-5 were sacrificed in D13 for determining their Ca values in tissue (i.e., aorta, carotids, femoral, heart, kidney).\nThe animals were exsanguinated before sacrifice. Their necropsies were performed, and their whole right and left femoral arteries, left and right carotids, aorta, heart, and right kidney were collected for calcium content measurement. The tissues were lyophilized for 24 h and weighed. The lyophilized tissues were then digested using a 1:1 HNO3:HClO4 mixture in a dry bath incubator for 2-4 h at 180° C. The digested tissues were subsequently diluted using ultra-pure Milli-Q water (MilliporeSigma, Merck KGaA, Burlington, MA, US) to a final volume of 5 mL (for femoral and carotid) or 10 mL (for heart, kidney and aorta). Calcium content was quantified via inductively coupled plasma optical emission spectrometry (ICP-OES) using an Optima 7300 DV ICP-OES System spectrometer (PerkinElmer, Inc., Waltham, MA, US) according to the manufacturer's instructions."}},
  "data": [
    {"substance": "4,6-O-bis(5-acetamidopentyl)-myo-inositol-1,2,3,5-tetrakis(phosphate) octasodium salt [Compound 27]", "values": [
      {"measurement": "EC50", "setting": "[1]", "value": "≤ 5", "unit": "µM"},
      {"measurement": "Effect on blood perfusion", "setting": "[2]; 5, 15, 45 mg/kg s.c. daily, D13", "value": "dose-response effect from 5 mg/kg"},
      {"measurement": "Recovery of posterior limb blood perfusion", "setting": "[2]; 15 and 45 mg/kg s.c. daily", "value": "recovery of posterior limb blood perfusion at doses of 15 and 45 mg/kg"},
      {"measurement": "Inhibition of ectopic calcification in all evaluated tissues", "setting": "[3]; aorta, carotids, femoral, heart, kidney", "value": "inhibits ectopic calcification in all the evaluated tissues"},
      {"measurement": "Inhibition of calcification in aorta", "setting": "[3]; aorta, FIG. 12A", "value": "observed at 45 mg/kg"},
      {"measurement": "Inhibition of calcification in the carotids", "setting": "[3]; carotids, FIG. 12D", "value": "observed at 45 mg/kg"},
      {"measurement": "Inhibition of calcification in the femoral arteries", "setting": "[3]; femoral arteries, FIG. 12C", "value": "dose-response effect from 5 mg/kg"},
      {"measurement": "Inhibition of calcification in the heart", "setting": "[3]; heart, FIG. 12B", "value": "dose-response effect from 5 mg/kg"},
      {"measurement": "Inhibition of calcification in the kidneys", "setting": "[3]; kidney, FIG. 12E", "value": "dose-response effect from 5 mg/kg"}
    ]}
  ]
}
